Data set [1] concerns the target T1, farnesyl protein transferase (FPT), partially purified from rat brain (Rattus norvegicus, UniProt Q02293+Q04631).
T1 construct: were partially purified from rat brain by ammonium sulfate fractionation followed by Q-Sepharose
Description: Inhibition of farnesyl protein transferase (transfer of [3H]farnesyl to Ras-CVLS). The data set is classed as biochemical. As to conditions: for IC50: read-out: FPT IC50. In a few lines: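 Transfer of [3H]farnesyl onto E. coli-expressed, His6-tagged Ras-CVLS was measured after 30 min at room temperature. Radiolabelled Ras was TCA-precipitated on ice and filter-harvested, and inhibition was expressed as percent of DMSO control.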

Data set [2] has as its target T2, geranylgeranyl protein transferase (GGPT) I (Rattus norvegicus, UniProt P53610+Q04631).
T2 construct: were partially purified from rat brain by ammonium sulfate fractionation followed by Q-Sepharose
Description: Inhibition of geranylgeranyl protein transferase I (Ras-CVLL as acceptor). It is filed as biochemical. The conditions noted are these: enzyme inhibition. From the text: 1. In vitro enzyme assays: Inhibition of farnesyl protein transferase and geranylgeranyl protein transferase.
Both farnesyl protein transferase (FPT) and geranylgeranyl protein transferase (GGPT) I were partially purified from rat brain by ammonium sulfate fractionation followed by Q-Sepharose (Pharmacia, Inc.) anion exchange chromatography essentially as described by Yokoyama et al (Yokoyama, K., et al., (1991), A protein geranylgeranyltransferase from bovine brain: Implications for protein prenylation specificity, Proc. Natl. Acad. Sci USA 88: 5302-5306, the disclosure of which is incorporated herein by reference thereto). Human farnesyl protein transferase was also expressed in E. coli, using cDNA clones encoding both the α and β subunits. The methods used were similar to those published (Omer, C. et al., (1993), Characterization of recombinant human farnesyl protein transferase: Cloning, expression, farnesyl diphosphate binding, and functional homology with yeast prenyl-protein transferases, Biochemistry 32:5167-5176). Human farnesyl protein transferase was partially-purified from the soluble protein fraction of E. coli as described above. […] Two forms of val^12-Ha-Ras protein were prepared as substrates for these enzymes, differing in their carboxy terminal sequence. One form terminated in cysteine-valine-leucine-serine (Ras-CVLS) the other in cystein-valine-leucine-leucine (Ras-CVLL). Ras-CVLS is a substrate for the farnesyl protein transferase while Ras-CVLL is a substrate for geranylgeranyl protein transferase I. The cDNAs encoding these proteins were constructed so that the proteins contain an amino-terminal extension of 6 histidine residues. Both proteins were expressed in Escherichia coli and purified using metal chelate affinity chromatography. The radiolabelled isoprenyl pyrophosphate substrates, [^3H]farnesyl pyrophosphate and [3H]geranylgeranyl pyrophosphate, were purchased from DuPont/New England Nuclear.
The geranylgeranyl protein transferase I assay was essentially identical to the farnesyl protein transferase assay described above, with two exceptions: [^3H]geranylgeranylpyrophosphate replaced farnesyl pyrophosphate as the isoprenoid donor and Ras-CVLL was the protein acceptor.

Data set [3] deals with Normal human HEPM fibroblasts. Description: Cell Mat Assay: density of mat cells (mIC50). It is filed as cell-based. In short, it runs like this:
(§1)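 Serial compound dilutions added 24 h after planting T24-BAG4 cells onto a mat of normal cells, then 14 d colony growth; monolayers glutaraldehyde-fixed and tumor cells X-Gal stained. tIC50 and mIC50 from microscope counts of colonies, cells per colony and mat cell density.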

For data set [4], the system named is Ras-CVLS processing in COS monkey kidney cells. Description: COS cell assay: Ras-CVLS processing (Western blot). It is filed as cell-based. As to conditions: COS cells, read-out: Inhibition of Ras Processing IC50. In a few lines: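 COS cells electroporated with Ras-CVLS (farnesyl transferase substrate) cDNA, with drug-containing fresh medium added at 24 h and cells examined at 48 h. TCA-precipitated cellular protein was resolved by SDS gel and immunoblotted with anti-p21 Ras monoclonal and HRP anti-rat IgG to monitor Ras processing.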

Data set [5] deals with T24-BAG4 human bladder carcinoma cells expressing an activated H-ras gene. The experiment in a line: Cell Mat Assay: tumor cell colony inhibition (tIC50). The data set is classed as cell-based. The conditions noted are these: inhibition of tumor cell growth. In a few lines:
as §1

Setting [6] is: Ras-CVLS farnesylation, partially purified rat brain FPT.

Where “and” joins values, the source holds several entries; their conditions need not be identical. Identical values can stand only once. Like-named read-outs stand apart in the source and are kept apart here.

T1 sequence (Q02293 whole entry, one chain of several): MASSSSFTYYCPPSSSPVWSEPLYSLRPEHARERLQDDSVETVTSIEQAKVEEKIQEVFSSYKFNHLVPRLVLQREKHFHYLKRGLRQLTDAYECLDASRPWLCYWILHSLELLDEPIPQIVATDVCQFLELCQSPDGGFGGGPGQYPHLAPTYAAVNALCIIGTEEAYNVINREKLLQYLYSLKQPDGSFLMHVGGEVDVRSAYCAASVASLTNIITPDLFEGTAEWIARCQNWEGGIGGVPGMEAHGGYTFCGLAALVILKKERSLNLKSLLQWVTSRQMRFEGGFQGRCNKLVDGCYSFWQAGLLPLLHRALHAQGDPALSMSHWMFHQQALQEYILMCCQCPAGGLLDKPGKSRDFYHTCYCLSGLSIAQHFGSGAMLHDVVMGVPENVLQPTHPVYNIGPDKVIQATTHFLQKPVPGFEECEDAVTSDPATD
T2 sequence (P53610 whole entry, one chain of several): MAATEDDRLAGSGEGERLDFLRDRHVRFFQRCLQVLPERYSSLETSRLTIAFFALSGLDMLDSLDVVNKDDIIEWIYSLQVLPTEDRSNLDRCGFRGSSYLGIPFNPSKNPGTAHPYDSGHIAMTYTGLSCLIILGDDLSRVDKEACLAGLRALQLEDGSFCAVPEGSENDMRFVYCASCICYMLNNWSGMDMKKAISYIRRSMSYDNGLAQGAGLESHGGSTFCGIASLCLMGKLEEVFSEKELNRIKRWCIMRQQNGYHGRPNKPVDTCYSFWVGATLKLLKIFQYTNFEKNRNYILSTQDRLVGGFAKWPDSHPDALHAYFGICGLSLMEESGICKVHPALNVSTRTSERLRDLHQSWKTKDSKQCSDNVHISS

Regarding `O=C(c1ccncc1)N1CCC(=C2c3ccc(Cl)cc3CCc3cccnc32)CC1` [Example 15], the melting point (commonly the temperature of the solid-liquid transition) was 176 to 178 °C. Also, the IC50 (commonly the concentration that gives 50% inhibition) in data set [1] (setting [6]) was found to be 4.7 µM.
For the compound `O=C(c1cc[n+]([O-])cc1)N1CCC(=C2c3ccc(Cl)cc3CCc3cccnc32)CC1` [Example 22], the melting point is 228 °C (dec.). Moreover, the IC50 in data set [1] (setting [6]) was determined as 6 µM.
On the same counts, the results for `CN1C(=O)C(CCC(=O)N2CCC(=C3c4ccc(Cl)cc4CCc4cccnc43)CC2)NC1=S` (stereo not drawn) [Example 23] are 205 to 207 °C and 6 µM.
On the same counts, the results for `O=C1CCC(C(=O)N2CCC(=C3c4ccc(Cl)cc4CCc4cccnc43)CC2)=NN1` [Example 35] are 190 to 193 °C and 9.9 µM.
On the same counts, the results for `O=C(C(CO)c1ccccc1)N1CCC(=C2c3ccc(Cl)cc3CCc3cccnc32)CC1` (stereo not drawn) [Example 41, 8-chloro-1-[ -(2-hydroxy-1-phenylethylcarbonyl)-4-piperidylidene]-6,11-dihydro-5H-benzo[5,6]-cyclohepta-[1,2-b]pyridine] are 92.7 to 93 °C and 6.1 µM.
In the case of `O=C(Cc1ccc(Br)cc1)N1CCN(C2c3ccc(Cl)cc3CCc3cccnc32)CC1` (stereo not drawn) [Example 77], the half-maximal inhibitory concentration (IC50) was more than 39 µM in data set [2], more than 50 µM in data set [3], 9.2 µM in data set [4] and more than 50 µM in data set [5].
In turn, `O=C(C(=O)N1CCC(=C2c3ccc(Cl)cc3CCc3cccnc32)CC1)c1c[nH]c2ccccc12` [Example 219] registered a melting point of 192 to 193 °C. The IC50 in data set [1] (setting [6]) came to 6.64 µM.
In the case of `O=C(Cc1ccccc1[N+](=O)[O-])C(=O)N1CCC(=C2c3ccc(Cl)cc3CCc3cccnc32)CC1` [Example 220], the melting point lay within 282 to 285 °C. The IC50 in data set [1] (setting [6]) worked out at 2.49 µM.
Consider `O=C(Cc1cc[n+]([O-])cc1)N1CCC(=C2c3ccc(Cl)cc3CCc3cccnc32)CC1` [Example 227], for which the melting point was 128 to 130 °C.
On to `O=C(Cc1ccc[n+]([O-])c1)N1CCC(=C2c3ccc(Cl)cc3CCc3ccc[n+]([O-])c32)CC1` [Example 231], for which the melting point is 105 to 107 °C. Further, in data set [1] (at 12 μM), the inhibition – broadly, the change of the read-out against control, counted positive when it falls – at 12 µM turned out to be 44%.
On to `O=C(Cc1cc[n+]([O-])cc1)N1CCC(C2c3ccc(Cl)cc3CCc3cccnc32)CC1` (stereo not drawn) [Example 234], for which the IC50 in data set [2] was more than 43 µM; in data set [3] (Homo sapiens, Fibroblast), more than 50 µM; in data set [4] (Primates, COS), 2.2 µM; in data set [1] (setting [6]), 0.33 µM; in data set [5] (Homo sapiens), 3.1 µM.
`O=C(Cc1ccncc1)N1CCC(=C2c3ccc(Cl)cc3CCc3c(On4nnc5ccccc54)ccnc32)CC1` [Example 249] yielded a melting point of 98.6 to 101.6 °C. The IC50 in data set [1] (setting [6]) stood at 0.64 µM.
In the case of `CC(C)(C)OC(=O)NCCSc1ccnc2c1CCc1cc(Cl)ccc1C2=C1CCN(C(=O)Cc2cccnc2)CC1` [Example 260], the melting point is 59.8 to 63.5 °C. Besides, in data set [1] (setting [6]), the IC50 was found to be 9.9 µM.
Regarding `CC(C)(C(=O)N1CCC(=C2c3ccc(Cl)cc3CCc3cccnc32)CC1)c1ccccc1` [Example 289], the IC50 was more than 40 µM in data set [2]; more than 50 µM in data set [3] (Homo sapiens, Fibroblast); more than 10 µM in data set [4] (Primates, COS); 1.44 µM and 1.4 µM in data set [1] (setting [6]); 12.5 µM in data set [5] (Homo sapiens); 18 µM in data set [5].
Turning to `O=C(Nc1ccncc1)N1CCC(=C2c3ccc(Cl)cc3CCc3cccnc32)CC1` [Example 291], the IC50 is more than 46 µM in data set [2]; more than 50 µM in data set [3] (Homo sapiens, Fibroblast); 3.6 µM in data set [4] (Primates, COS); 0.87 µM in data set [1] (setting [6]); 18 µM in data set [5] (Homo sapiens).
In the case of `O=C(Nc1cccnc1)N1CCC(=C2c3ccc(Cl)cc3CCc3cccnc32)CC1` [Example 292], the IC50 in data set [2] is more than 44 µM; in data set [3] (Homo sapiens, Fibroblast), more than 50 µM; in data set [4] (Primates, COS) it was 6.8 µM; in data set [1] (setting [6]) it was 0.99 µM; in data set [5] (Homo sapiens), 6.25 µM.
In the case of `O=C(Nc1ccccc1)N1CCC(=C2c3ccc(Cl)cc3CCc3cccnc32)CC1` [Example 293], the IC50 is more than 40 µM in data set [2]; more than 50 µM in data set [3] (Homo sapiens, Fibroblast); 6.5 µM in data set [4]; more than 11.1 µM in data set [4] (Primates, COS); 1.76 µM and 0.47 µM in data set [1] (setting [6]); 12.5 µM in data set [5] (Homo sapiens).
On to `O=C(OC(C(=O)N1CCC(=C2c3ccc(Cl)cc3CCc3cccnc32)CC1)c1ccccc1)c1ccncc1` (stereo not drawn) [Example 298], for which the IC50 was more than 35 µM in data set [2]; more than 50 µM in data set [3] (Homo sapiens, Fibroblast); more than 9 µM in data set [4] (Primates, COS); 4.58 µM in data set [1] (setting [6]); more than 50 µM in data set [5] (Homo sapiens).
As for `Cc1cnc2c(c1)CCc1cc(Cl)ccc1C2=C1CCN(C(=O)Cc2cccnc2)CC1` [Example 303], the IC50 in data set [2] is more than 43 µM; in data set [3] (Homo sapiens, Fibroblast), more than 50 µM; in data set [4] (Primates, COS), 3.4 µM; in data set [1] (setting [6]), 0.55 µM; in data set [5] (Homo sapiens) it was 8 µM.
Consider `O=C(Cc1ccncc1)N1CCC(=C2c3cc(Cl)c(Cl)cc3CCc3cccnc32)CC1` [Example 311], for which the IC50 is 41.3 µM in data set [2]; more than 50 µM in data set [3] (Homo sapiens, Fibroblast); 9.5 µM in data set [4] (Primates, COS); 0.61 µM in data set [1] (setting [6]); 10 µM in data set [5] (Homo sapiens).
On the same counts, the results for `O=C(Nc1ccccc1)N1CCC(C2c3ccc(Cl)cc3CCc3cccnc32)CC1` (stereo not drawn) [Example 312] are more than 46 µM, more than 50 µM, 3.8 µM, 0.9 µM and 12.5 µM.
With `O=C(Nc1cccnc1)N1CCC(C2c3ccc(Cl)cc3CCc3cccnc32)CC1` (stereo not drawn) [Example 313], the 50% inhibitory concentration (IC50) was more than 46 µM in data set [2]; more than 50 µM in data set [3] (Homo sapiens, Fibroblast); 1.5 µM in data set [4] (Primates, COS); 0.97 µM in data set [1] (setting [6]); 6.25 µM in data set [5] (Homo sapiens).
As to `O=C(Nc1ccncc1)N1CCC(C2c3ccc(Cl)cc3CCc3cccnc32)CC1` (stereo not drawn) [Example 314], the IC50 is more than 46 µM in data set [2]; more than 50 µM in data set [3] (Homo sapiens, Fibroblast); 3 µM in data set [4] (Primates, COS); 0.83 µM in data set [1] (setting [6]); 4 µM in data set [5] (Homo sapiens).
For `CC(C)(C(=O)N1CCC(C2c3ccc(Cl)cc3CCc3cccnc32)CC1)c1ccccc1` (stereo not drawn) [Example 316], in that order: more than 43 µM, more than 50 µM, 18.4 µM, 1.26 µM and 25 µM.
Consider `O=C(Cc1cccnc1)N1CCN(C2c3ccc(Cl)cc3CCc3cc(Br)cnc32)CC1` (stereo not drawn) [Example 351], for which the IC50 in data set [2] came to 1000 µM; in data set [3] (Homo sapiens, Fibroblast), 25 µM; in data set [4] (Primates, COS), 2.8 µM; in data set [1] (setting [6]), 0.17 µM; in data set [5] (Homo sapiens), 6.25 µM.
`O=C(Cc1cc[n+]([O-])cc1)N1CCC(C2c3ccc(Cl)cc3C=Cc3cc(Br)cnc32)CC1` (stereo not drawn) [Example 400-C]: the IC50 in data set [2] was more than 38 µM; in data set [3] (Homo sapiens, Fibroblast), more than 25 µM; in data set [4] (Primates, COS), 0.7 µM; in data set [1] (setting [6]), 0.03 µM; in data set [1] (enzyme inhibition), 0.03 µM; in data set [5] (Homo sapiens), less than 1.6 µM.
On to `O=C(Cc1ccc[n+]([O-])c1)N1CCC(C2c3ccc(Cl)cc3C=Cc3cc(Br)cnc32)CC1` (stereo not drawn) [Example 400-D], for which the IC50 is more than 38 µM in data set [2]; more than 25 µM in data set [3] (Homo sapiens, Fibroblast); 2 µM in data set [4] (Primates, COS); 0.21 µM in data set [1] (setting [6]); 0.21 µM in data set [1] (enzyme inhibition); 4 µM in data set [5] (Homo sapiens).
Regarding `O=C(Cc1ccncc1)N1CCC(C2c3ccc(Cl)cc3C=Cc3cc(Br)cnc32)CC1` (stereo not drawn) [Example 400-G], the concentration for half-maximal inhibition (IC50) is more than 39 µM in data set [2]; more than 25 µM in data set [3] (Homo sapiens, Fibroblast); 0.58 µM in data set [4] (Primates, COS); 0.024 µM in data set [1] (setting [6]); 0.024 µM in data set [1] (enzyme inhibition); 1.6 µM in data set [5] (Homo sapiens).
Compound `O=C(Cc1ccnc(Br)c1)N1CCC(=C2c3ccc(Cl)cc3CCc3cc(Br)cnc32)CC1` [Example 506] came in with a melting point of 134 to 136.1 °C.

The record behind these values is US20030055065A1, “Tricyclic amide and urea compounds useful for inhibition of G-protein function and for treatment of proliferative diseases” (priority 1993, published 2003).
